Experimental data as given in patent US20060073112A1, “Method of preventing hydrogen sulfide odor generation in an aqueous medium” (priority 2004, published 2006).

Tests used:
[1] = tested on: sulfate reducing bacteria; assay: Sulfate reducing bacteria viability (SRB/ml) after treatment; type: cell-based
Description: The test protocol was as follows: 100 mL serum bottles were filled with synthetic nutrient medium, then stoppered, capped, and autoclaved, and allowed to cool to at least 35° C. Using a 1 mL syringe with needle, the treatment was added at desired dosages to prepared serum bottles (triplicates of each dosage). No treatment was added for baseline controls. Nine baseline serum bottles were used.
Next, a 10^10 cells/ml concentration of the sulfate reducers was prepared (using autoclaved synthetic nutrient medium) inside an anaerobic chamber. Using a 1 ml syringe with needle, 0.1 ml of the prepared sulfate reducers culture was added to each serum bottle. The bottles were then incubated at the desired temperature for 48 hours.

[2] = tested on: sulfate reducing bacteria; assay: Inhibition of hydrogen sulfide generation by sulfate reducers in serum bottles; type: cell-based; details: 48 hours incubation; for Sulfide Formation Level Sample A: replicate bottle A; for Sulfide Formation Level Sample B: replicate bottle B; for Sulfide Formation Level Sample C: replicate bottle C
Description: The test protocol was as follows: 100 mL serum bottles were filled with synthetic nutrient medium, then stoppered, capped, and autoclaved, and allowed to cool to at least 35° C. Using a 1 mL syringe with needle, the treatment was added at desired dosages to prepared serum bottles (triplicates of each dosage). No treatment was added for baseline controls. Nine baseline serum bottles were used. Next, a 10^10 cells/ml concentration of the sulfate reducers was prepared (using autoclaved synthetic nutrient medium) inside an anaerobic chamber. Using a 1 ml syringe with needle, 0.1 ml of the prepared sulfate reducers culture was added to each serum bottle. The bottles were then incubated at the desired temperature for 48 hours. The baseline dissolved sulfide levels were then measured to determine if the samples were ready for efficacy analysis. Using a 30 mL syringe with needle, 30 mL of sample was removed from each serum bottle. About 25 mL of the sample was added to a 30 mL bottle containing 0.125 mL zinc acetate solution, followed by adding 1 mL of 1N NaOH. The sulfide in the fixed sample was then measured. If the control sample sulfide levels were >10 ppm, then the whole series of test vials was evaluated for generated sulfide. The remaining 5 mL of sample in the syringe was used for a final pH determination.

Sc1nc2ccccc2s1 [2-mercaptobenzothiazole]
SRB/ml ([1]; inhibitor dose conc. 25 ppm): 10,000 SRB/ml | SRB/ml ([1]; inhibitor dose conc. 50 ppm): 100,000 SRB/ml | SRB/ml ([1]; inhibitor dose conc. 100 ppm): 10,000 SRB/ml | Sulfide Formation Level Sample A ([2]; inhibitor dose conc. 25 ppm): 0 (0 = <0.1 ppm Sulfide) | Sulfide Formation Level Sample B ([2]; inhibitor dose conc. 25 ppm): 0 (0 = <0.1 ppm Sulfide) | Sulfide Formation Level Sample C ([2]; inhibitor dose conc. 25 ppm): 0 (0 = <0.1 ppm Sulfide) | Sulfide Formation Level Sample A ([2]; inhibitor dose conc. 50 ppm): 0 (0 = <0.1 ppm Sulfide) | Sulfide Formation Level Sample B ([2]; inhibitor dose conc. 50 ppm): 0 (0 = <0.1 ppm Sulfide) | Sulfide Formation Level Sample C ([2]; inhibitor dose conc. 50 ppm): 0 (0 = <0.1 ppm Sulfide) | Sulfide Formation Level Sample A ([2]; inhibitor dose conc. 100 ppm): 0 (0 = <0.1 ppm Sulfide) | Sulfide Formation Level Sample B ([2]; inhibitor dose conc. 100 ppm): 0 (0 = <0.1 ppm Sulfide) | Sulfide Formation Level Sample C ([2]; inhibitor dose conc. 100 ppm): 0 (0 = <0.1 ppm Sulfide)

CC[C@@]1([C@@H]2O[C@@H]([C@H]3O[C@@](O)(CO)[C@H](C)C[C@@H]3C)C[C@@H]2C)CC[C@H]([C@]2(C)CC[C@]3(C[C@H](O)[C@@H](C)[C@@H]([C@@H](C)[C@@H](OC)[C@H](C)C(=O)O)O3)O2)O1 [monensin, reference compound]
SRB/ml ([1]; inhibitor dose conc. 25 ppm): 1,000,000 SRB/ml | SRB/ml ([1]; inhibitor dose conc. 50 ppm): 100,000 SRB/ml | SRB/ml ([1]; inhibitor dose conc. 100 ppm): 10,000 SRB/ml | Sulfide Formation Level Sample A ([2]; inhibitor dose conc. 25 ppm): 1+ (1+ = 0.1-1.0 ppm Sulfide) | Sulfide Formation Level Sample B ([2]; inhibitor dose conc. 25 ppm): 1+ (1+ = 0.1-1.0 ppm Sulfide) | Sulfide Formation Level Sample C ([2]; inhibitor dose conc. 25 ppm): 0 (0 = <0.1 ppm Sulfide) | Sulfide Formation Level Sample A ([2]; inhibitor dose conc. 50 ppm): 0 (0 = <0.1 ppm Sulfide) | Sulfide Formation Level Sample B ([2]; inhibitor dose conc. 50 ppm): 0 (0 = <0.1 ppm Sulfide) | Sulfide Formation Level Sample C ([2]; inhibitor dose conc. 50 ppm): 0 (0 = <0.1 ppm Sulfide) | Sulfide Formation Level Sample A ([2]; inhibitor dose conc. 100 ppm): 0 (0 = <0.1 ppm Sulfide) | Sulfide Formation Level Sample B ([2]; inhibitor dose conc. 100 ppm): 0 (0 = <0.1 ppm Sulfide) | Sulfide Formation Level Sample C ([2]; inhibitor dose conc. 100 ppm): 0 (0 = <0.1 ppm Sulfide)

NCCO [monoethanolamine]
SRB/ml ([1]; inhibitor dose conc. 25 ppm): 100,000 SRB/ml | SRB/ml ([1]; inhibitor dose conc. 50 ppm): 100,000 SRB/ml | SRB/ml ([1]; inhibitor dose conc. 100 ppm): 100,000 SRB/ml | Sulfide Formation Level Sample A ([2]; inhibitor dose conc. 25 ppm): 1+ (1+ = 0.1-1.0 ppm Sulfide) | Sulfide Formation Level Sample B ([2]; inhibitor dose conc. 25 ppm): 1+ (1+ = 0.1-1.0 ppm Sulfide) | Sulfide Formation Level Sample C ([2]; inhibitor dose conc. 25 ppm): 1+ (1+ = 0.1-1.0 ppm Sulfide) | Sulfide Formation Level Sample A ([2]; inhibitor dose conc. 50 ppm): 1+ (1+ = 0.1-1.0 ppm Sulfide) | Sulfide Formation Level Sample B ([2]; inhibitor dose conc. 50 ppm): 1+ (1+ = 0.1-1.0 ppm Sulfide) | Sulfide Formation Level Sample C ([2]; inhibitor dose conc. 50 ppm): 0 (0 = <0.1 ppm Sulfide) | Sulfide Formation Level Sample A ([2]; inhibitor dose conc. 100 ppm): 0 (0 = <0.1 ppm Sulfide) | Sulfide Formation Level Sample B ([2]; inhibitor dose conc. 100 ppm): 0 (0 = <0.1 ppm Sulfide) | Sulfide Formation Level Sample C ([2]; inhibitor dose conc. 100 ppm): 0 (0 = <0.1 ppm Sulfide)
